How the values were obtained:
BxPC-3 [1] = test: Trypan blue staining; format: cell-based, human; conditions: BxPC-3, 0.5, 1 and 2 × IC50, 24 h, 37 °C
Experimental: (§1) Trypan blue is a diazo dye that has been used for viability assessment for years. Viable cells with undamaged cellular membranes are resistant to staining and thus allow the discrimination from blue-stained dead cells with disrupted membranes. Cells were seeded at a density of 1.5 × 10^5/mL onto 12-well plates. […] Cells were left for incubation for another 24 h (37 °C; 5% CO2). After exposure, they were transferred to Eppendorf tubes and centrifuged at 1400 rpm for 10 min at 4 °C. Afterward, the supernatant was removed, and the precipitate was diluted in PBS. Cell suspensions were mixed with 0.4% trypan blue solution in a 1:1 ratio. Approximately 300 cells were counted under a light microscope. The experiment was repeated three times. The results were represented as mean viability (%) with SD values.

PC-3 [2] = test: Trypan blue staining; format: cell-based, human; conditions: PC-3, 0.5, 1 and 2 × IC50, 24 h, 37 °C
Experimental: as §1

WI-38 [3] = test: Trypan blue staining; format: cell-based, human; conditions: WI-38, 0.5, 1 and 2 × IC50, 24 h, 37 °C
Experimental: as §1

Alamar blue assay = format: cell-based; conditions: human
Experimental: Alamar blue works as a non-toxic and membrane-permeable redox indicator that is often used to assess the metabolic activity of cells. Over the past 50 years, the alamar blue reagent has been used to measure cell viability and cytotoxicity in a variety of cell types. In this study, alamar blue (BioRAD) was used to assess cell viability before the performance of the neutral comet assay. Nunc microtiter, flat-bottomed 96-well plates were seeded at a density of approximately 1 × 10^4 cells per 100 µL medium per well. Following the given incubation period in controlled conditions (37 °C; 5% CO2), cells were exposed to 11 different concentrations of tested compounds in DMSO (range 0.05–3 µM) in a volume of 100 µL medium per well. The final solvent concentration was <0.5% v/v. The experimental design included negative controls and blanks (wells without cells).
Following a 24 h incubation period, 20 µL of alamar blue was added to each well of the experimental plate. Cells were incubated in a humidified atmosphere for 4 h (37 °C; 5% CO2). The absorbance reading was performed at 570 and 600 nm using a spectrophotometer (microplate reader Power Wave XS BioTek Instruments, Inc., USA). The experiments were performed in triplicate.
The percentage difference between treated and control cells was calculated using the formula provided by the producer (BioRad). (1) Percentage difference between treated and control cells=O2×A1 −O1×A2 /O2×P1−O1×P2×100

BxPC-3 [4] = test: Alkaline comet assay; format: cell-based, human; conditions: BxPC-3, alkaline, 24 h
Experimental: (§2) The alkaline version of the comet assay was performed according to Singh et al. (1988), with modifications. BxPC-3 and PC-3 cancer cells and normal human fibroblasts (WI-38) were seeded at a density of 1.2 × 10^5/mL onto 12-well plates. […] The experimental design included negative controls (cells treated with DMSO at 0.4% for 24 h at 37 °C). Cells were left for incubation for another 24 h (37 °C; 5% CO2). After exposure, they were transferred to Eppendorf tubes and centrifuged at 1400 rpm for 10 min at 4 °C. Afterward, the supernatant was removed, and the precipitate was diluted in PBS. The next steps were performed as previously described by Kontek and Nowicka.
(§3) After electrophoresis (conditions: 12 V, 300 mA, 25 min), slides were stained with 1 µg/mL of the intercalating agent 4′,6-diamidino-2-phenylindole (DAPI) and coverslipped. DNA damage was assessed with a fluorescence microscope at 360 nm using CellSens (Olympus) software. A total number of approximately 50 cells per slide was chosen for further analysis.
(§4) […] This parameter provides a very clear picture of what the actual appearance of the comets was like. […] The data were presented with an interquartile range and minimal and maximal values using Graphpad Prism 7. Statistical analysis of comet assay results was performed using Statistica software. The Kruskal–Wallis test was used to show a statistically significant difference between groups. Multiple comparisons using mean ranks for all groups module of Statistica software were used. A p-value less than 0.05 was considered statistically significant. In all groups, N > 200.

PC-3 [5] = test: Alkaline comet assay; format: cell-based, human; conditions: PC-3, alkaline, 24 h
Experimental: as §2, §3, §4

WI-38 [6] = test: Alkaline comet assay; format: cell-based, human; conditions: WI-38, alkaline; for mean tail DNA % / median tail DNA %: 24 h
Experimental: as §2, §3, §4

BxPC-3 [7] = test: Neutral comet assay; format: cell-based, human; conditions: 24 h
Experimental: (§5) The majority of the neutral comet assay steps were performed analogously to the alkaline version except for the electrophoresis step. In contrast to the alkaline comet assay, electrophoresis was performed in a buffer comprising 100 mM TRIS and 300 mM sodium acetate with the pH of the solution adjusted to 9.0 by glacial acetic acid, as described previously by Bukowski et al.. Electrophoresis was run at 12 V, 50 mA for 60 min. Cells were washed with distilled water twice, stained with DAPI, and analyzed as described for the alkaline comet assay.
CASP: Comet Assay Software Project Lab (http://casplab.com (accessed on 1 January 2023)) was used to establish the median value of DNA (%) in comet tails. This parameter provides a very clear picture of what the actual appearance of the comets was like. […] The data were presented with an interquartile range and minimal and maximal values using Graphpad Prism 7. Statistical analysis of comet assay results was performed using Statistica software. The Kruskal–Wallis test was used to show a statistically significant difference between groups. Multiple comparisons using mean ranks for all groups module of Statistica software were used. A p-value less than 0.05 was considered statistically significant. In all groups, N > 200.

PC-3 [8] = test: Neutral comet assay; format: cell-based, human; conditions: 24 h
Experimental: as §5, §4

PC-3 [9] = test: γH2AX staining; format: cell-based, human; conditions: PC-3, IC50 concentration, 24 h, foci per cell
Experimental: PC-3 cells were seeded at a density of 3 × 10^4/mL onto round coverslips placed on the bottom of 12-well plates. […] After 24 h, cells were washed once with cold PBS and placed in 4% paraformaldehyde (PHA) in PBS for 10 min. at room temperature. After that, PHA was removed, and cells were permeabilized using 0.1% Triton X-100 for 10 min at 20 °C, followed by incubation in a blocking solution (1 mL/well) containing 2.5% BSA, 1.5% goat serum, and 0.1% Triton X-100 in PBS for 10 min at room temperature. The blocking solution was removed, and coverslips containing cells were incubated with anti-γ-H2AX primary antibodies in blocking solution (anti-gamma-H2AX (phosphor-Ser139) (Abcam, Cambridge, UK; 1:100)) for 1 h at room temperature. Cells were transferred into 12-well plates, washed twice in PBS (5 min each), transferred to plates, and incubated with Goat anti-Mouse IgG Cross-adsorbed antibody, Alexa Fluor 488 (Invitrogen; 1:500 in PBS) for 1 h at room temperature. Cells were washed twice in PBS, followed by incubation with DAPI solution (1 µg/mL) for 10 min at room temperature and two washes in PBS and distilled water. Coverslips were removed using tweezers and placed on microscope slides with a drop of Fluoromount-G mounting medium. The slides were placed flat at room temperature for 24 h and then stored at 4 °C. The slides were analyzed with a fluorescence microscope using CellSens (Olympus) software. A total number of approximately 100 cells per slide was chosen for further analysis. The experiment was performed in duplicate. In BxPC-3 cells, inefficient or non-specific staining was observed despite attempts to optimize the assay. Therefore, we discontinued further work on these cells with the assay.
Images for green γ-H2AX (Alexa Fluor 488) and blue nuclear signals (DAPI) were taken using an Olympus camera. ImageJ software “find maxima” and “count” functions were used to determine the number of γ-H2AX foci in each cell. The “preview point selection” option and “prominence” were chosen based on the accuracy of coverage of γ-H2AX foci. Data were analyzed using GraphPad Prism 7.0 software system (GraphPad Prism Software Inc., USA) and Statistica software. The Kruskal–Wallis test was used to show a statistically significant difference between groups. Multiple comparisons using mean ranks for all groups module of Statistica software were used. A p-value less than 0.05 was considered statistically significant (p < 0.05). In all groups, N > 200.

BxPC-3 [10] = test system: BxPC-3; set-up: method as in PMID 35682571; conditions: BxPC-3, 72 h incubation, MTT assay, mean; read-out: IC50 Value ± SD; cited from earlier work
PC-3 [11] = test system: PC-3; set-up: method as in PMID 35682571; conditions: PC-3, 72 h incubation, MTT assay, mean; read-out: IC50 Value ± SD; cited from earlier work
WI-38 [12] = test system: WI-38; set-up: method as in PMID 35682571; conditions: WI-38 (head prints WI-28), 72 h incubation, MTT assay, mean; read-out: IC50 Value ± SD; cited from earlier work
[13] = test system: BxPC-3 and PC-3 cancer cell lines; set-up: method as in PMID 35682571; conditions: BxPC-3 and PC-3, 72 h MTT assay; read-out: IC50 (range over cancer cell lines); cited from earlier work
[14] = BxPC-3, neutral, positive control 20 µM
[15] = PC-3, neutral, positive control 20 µM

Row | Compound | mean tail DNA % (BxPC-3 [4]; IC50 concentration) [%] | median tail DNA % (BxPC-3 [4]; IC50 concentration) [%] | mean tail DNA % (PC-3 [5]; IC50 concentration) [%] | median tail DNA % (PC-3 [5]; IC50 concentration) [%] | mean tail DNA % (WI-38 [6]; IC50 concentration) [%] | median tail DNA % (WI-38 [6]; IC50 concentration) [%] | mean tail DNA % (double-strand breaks) (BxPC-3 [7]; human) [%] | median tail DNA % (double-strand breaks) (BxPC-3 [7]; human) [%] | mean tail DNA % (double-strand breaks) (PC-3 [8]; human) [%] | median tail DNA % (double-strand breaks) (PC-3 [8]; human) [%] | mean number of γH2AX foci (PC-3 [9]) | median number of γH2AX foci (PC-3 [9]) | viability at 24 h, 3 µM (Alamar blue assay; PC-3 cells, PC-3, 3 µM) [%] | IC50 (BxPC-3 [10]) [nM] | IC50 (PC-3 [11]) [nM] | IC50 (WI-38 [12]) [nM] | other results
1 | Cc1nn(-c2ccc(S(=O)(=O)N3CCN(C)CC3)cc2)c2nn3nnnc3nc12 [MM137] | 12.07 | 3.28 | 11.05 | 2.32 | 1.26 | 0.09 | – | – | 4.45 | 2.82 | 17.52 | 15 | – | 160 ± 40 | 110 ± 7 | 270 ± 40 | –
2 | Cc1nn(-c2ccc(S(=O)(=O)N3CCCCC3)cc2)c2nn3nnnc3nc12 [MM139] | 10.85 | 4.74 | 14.22 | 3.35 | 2.97 | 0.085 | 4.86 | 3.72 | 6.07 | 5 | 15.37 | 12 | 88.4 ± 1.72 | 330 ± 140 | 170 ± 3 | 540 | viability at 24 h, 3 µM (Alamar blue assay; BxPC-3 cells, BxPC-3, 3 µM): 75.3 ± 0.99%; IC50 [13]: 170 to 330 nM
3 | bleomycin [reference compound] | – | – | – | – | – | – | – | – | – | – | – | – | – | – | – | – | mean tail DNA % (BxPC-3 [4]; positive control 20 µM): 48.3%; median tail DNA % (BxPC-3 [4]; positive control 20 µM): 50.8%; mean tail DNA % (PC-3 [5]; positive control 20 µM): 22.07%; median tail DNA % (PC-3 [5]; positive control 20 µM): 19.31%; mean tail DNA % (WI-38 [6]; positive control 20 µM): 32.6%; median tail DNA % (WI-38 [6]; positive control 20 µM): 29.13%; mean tail DNA % (double-strand breaks) (BxPC-3 [7]; [14]): 11.15%; median tail DNA % (double-strand breaks) (BxPC-3 [7]; [14]): 9.7%; mean tail DNA % (double-strand breaks) (PC-3 [8]; [15]): 12.9%; median tail DNA % (double-strand breaks) (PC-3 [8]; [15]): 10.4%

The next lines start with results.

Row | mean tail DNA % (BxPC-3 [4]; IC50 concentration) [%] | median tail DNA % (BxPC-3 [4]; IC50 concentration) [%] | mean tail DNA % (PC-3 [5]; IC50 concentration) [%] | median tail DNA % (PC-3 [5]; IC50 concentration) [%] | mean tail DNA % (WI-38 [6]; IC50 concentration) [%] | median tail DNA % (WI-38 [6]; IC50 concentration) [%] | mean tail DNA % (double-strand breaks) (BxPC-3 [7]; human) [%] | median tail DNA % (double-strand breaks) (BxPC-3 [7]; human) [%] | mean tail DNA % (double-strand breaks) (PC-3 [8]; human) [%] | median tail DNA % (double-strand breaks) (PC-3 [8]; human) [%] | mean number of γH2AX foci (PC-3 [9]) | median number of γH2AX foci (PC-3 [9]) | Compound | viability at 24 h, 3 µM (Alamar blue assay; PC-3 cells, PC-3, 3 µM) [%] | IC50 (BxPC-3 [10]) [nM] | IC50 (PC-3 [11]) [nM] | IC50 (WI-38 [12]) [nM] | other results
4 | 10.9 | 2.5 | 7.37 | 1.03 | 4.19 | 1.5 | 5.11 | 4.21 | 5.72 | 4.09 | 25.8 | 21 | Cc1nn(-c2ccc(S(=O)(=O)NCCN3CCOCC3)cc2)c2nn3nnnc3nc12 [MM134] | 55.8 ± 5.27 | 320 ± 100 | 160 ± 20 | – | cell viability (BxPC-3 [1]): highest reduction in cell viability; cell viability (PC-3 [2]): highest reduction in cell viability; cell viability (WI-38 [3]): highest reduction in cell viability; DNA damage compared with negative and positive control (in words) (WI-38 [6]; 0.5 × IC50, IC50, 2 × IC50, 24 h, p < 0.05): statistically significant increase in DNA damage
5 | 14.36 | 8.28 | 12.08 | 1.63 | 0.72 | 0.01 | 5.08 | 4.10 | 8 | 4.6 | 14.71 | 11 | Cc1nn(-c2ccc(S(=O)(=O)N3CCOCC3)cc2)c2nn3nnnc3nc12 [MM136] | – | 250 ± 80 | 130 ± 10 | 480 ± 90 | –

Reference: PMC9966268, “Genotoxicity of Novel Pyrazolo[4,3-e]tetrazolo[1,5-b][1,2,4]triazine Sulfonamides in Normal and Cancer Cells In Vitro” (International Journal of Molecular Sciences, 2023)
